According to US8163768B2, “1,4-dihydropyridine-fused heterocycles, process for preparing the same, use and compositions containing them” (Aventis Pharma S.A.., priority 2005, dated 2012):

Key:
Aurora1 (Aurora-B) = biological target: T1, Aurora1 (Aurora-B) (Homo sapiens, UniProt Q96GD4); test: Aurora 1 (Aurora B) kinase radioactivity scintillation assay using nickel chelate Flash plates; type: biochemical; conditions: 10 nM Aurora-B (co expressed with C3 fragment of INCEP), 500 nM NuMA substrate, 1 μM ATP with [33P] ATP, 5 mM MgCl2, 30 minutes, 37° C.
T1 construct: Aurora-B: the full length protein (His tagged in N-terminal) has been co expressed in SF9 cells; poly-histidine (N); made in house; host or cells: SF9 cells
Procedure: (§1) Aurora 1 and 2 (Respectively. Aurora B and A)
(§2) The inhibitory effect of compounds with respect to the Aurora 1 and 2 kinases is determined with a radioactivity scintillation assay using nickel chelate.
(§3) The kinase activity of Aurora is measured by the phosphorylation of NuMA-histidine substrate in the presence of radiolabelled ATP ([^33P] ATP) using 96 well Flash plates where the nickel-chelate is linked to the surface of the microplate. The amount of ^33P incorporated to the substrate NuMA is proportional to the aurora activity.
(§4) The Flash plates used are nickel-chelate 96 well plates (Perkin Elmer, model SMP107).
(§5) The products to be evaluated are incubated in a 100 μl reaction volume per well in the presence of 10 nM of Aurora-B or Aurora-A, 500 nM of NuMA substrate in the following buffer: 50 mM of NaCl, 5 mM MgCl2, (Aurora-B) or 10 mM MgCl2 (Aurora-A) and 1 mM of DTT at 37° C.
(§6) 80 μL of enzyme/substrate incubation buffer is distributed in each well, followed by 10 μL of solution of compound to be measured with various concentrations. The reaction is started by adding 1 μM of ATP (final concentration) containing 0.2 μCi of [^33P] ATP (10 μL). After 30 minutes of incubation the reaction is stopped by removal of the reaction mixture and each well is washed twice with 300 μl of buffer Tris/HCl. The radioactivity is measured in each well using a Packard Top count scintillation counter instrument.
(§7) The enzymatic activity is expressed as counts per minute obtained in 30 minutes after subtraction of the background noise (reaction medium without enzyme). The measurement is expressed as percentage of inhibition of Aurora activity versus the control. To generate IC50 values, compounds of the invention are tested at different concentration and the percentage of inhibition are plotted as function of compound concentration, IC50s are calculated using the Xlfit 4 curve fitting software.

Aurora2 (Aurora-A) = biological target: T2, Aurora2 (Aurora-A) (Homo sapiens, UniProt O14965); test: Aurora 2 (Aurora A) kinase radioactivity scintillation assay using nickel chelate Flash plates; type: biochemical; conditions: 10 nM Aurora-A, 500 nM NuMA substrate, 1 μM ATP with [33P] ATP, 10 mM MgCl2, 30 minutes, 37° C.
T2 construct: Aurora-A: the full length recombinant protein including an N-terminal poly-histidine tail has been expressed in E. coli; poly-histidine (N); made in house; host or cells: E. coli
T2 sequence (O14965 1-403): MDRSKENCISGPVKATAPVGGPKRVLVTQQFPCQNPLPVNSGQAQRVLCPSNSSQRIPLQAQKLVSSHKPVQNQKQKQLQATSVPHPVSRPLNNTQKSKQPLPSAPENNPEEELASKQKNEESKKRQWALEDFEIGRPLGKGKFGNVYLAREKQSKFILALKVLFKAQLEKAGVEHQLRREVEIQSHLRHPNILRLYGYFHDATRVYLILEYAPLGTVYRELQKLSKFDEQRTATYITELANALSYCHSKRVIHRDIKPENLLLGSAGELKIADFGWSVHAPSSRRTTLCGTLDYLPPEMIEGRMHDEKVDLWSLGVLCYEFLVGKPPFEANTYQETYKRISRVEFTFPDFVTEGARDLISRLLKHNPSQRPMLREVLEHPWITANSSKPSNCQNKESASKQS
Procedure: as §1, §2, §3, §4, §5, §6, §7

T1 sequence (Q96GD4 whole entry, species assumed, the tested form may be a part): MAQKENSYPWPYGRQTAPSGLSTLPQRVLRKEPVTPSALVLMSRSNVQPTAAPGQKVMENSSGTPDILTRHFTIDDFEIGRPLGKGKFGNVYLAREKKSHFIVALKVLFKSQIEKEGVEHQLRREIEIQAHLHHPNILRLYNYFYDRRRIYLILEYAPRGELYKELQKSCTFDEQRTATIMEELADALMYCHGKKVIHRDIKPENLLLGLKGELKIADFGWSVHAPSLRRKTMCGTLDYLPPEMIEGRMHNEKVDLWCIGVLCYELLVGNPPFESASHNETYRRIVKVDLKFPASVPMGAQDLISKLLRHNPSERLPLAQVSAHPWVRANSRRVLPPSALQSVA
T1 sequence (Q9NQS7 821-918 partner limits assumed, species assumed): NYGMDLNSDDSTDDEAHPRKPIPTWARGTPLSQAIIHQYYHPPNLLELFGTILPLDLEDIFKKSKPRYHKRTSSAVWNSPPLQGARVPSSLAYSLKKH

| SMILES | IC50 (Aurora1 (Aurora-B)) [nM] | IC50 (Aurora2 (Aurora-A)) [nM] |
| --- | --- | --- |
| O=C1CC(c2ccc3c(c2)OCO3)CC2=C1C(c1ccc(Sc3nc4ccccc4[nH]3)o1)c1c[nH]nc1N2 (stereo not shown) [Example 35, 7-Benzo[1,3]dioxol-5-yl-4-[5-(1H-benzimidazol-2-ylsulfanyl)-furan-2-yl]-2,4,6,7,8,9-hexahydro-pyrazolo[3,4-b]quinolin-5-one; compound with trifluoro-acetic acid] | 5 | 19 |
| COc1ccc(C2CC(=O)C3=C(C2)Nc2n[nH]cc2C3c2ccc(Sc3nc4ccccc4[nH]3)o2)cc1OC (stereo not shown) [Example 36, 4-[5-(1H-Benzimidazol-2-ylsulfanyl)-furan-2-yl]-7-(3,4-dimethoxy-phenyl)-2,4,6,7,8,9-hexahydro-pyrazolo[3,4-b]quinolin-5-one; compound with trifluoro-acetic acid] | 11 | 41 |
| CCCCCC1CC(=O)C2=C(C1)Nc1n[nH]cc1C2c1ccc(Sc2nc3ccccc3[nH]2)o1 (stereo not shown) [Example 37, 4-[5-(1H-Benzimidazol-2-ylsulfanyl)-furan-2-yl]-7-pentyl-2,4,6,7,8,9-hexahydro-pyrazolo[3,4-b]quinolin-5-one; compound with trifluoro-acetic acid] | 7 | 29 |
| O=C1CC(c2ccccc2F)CC2=C1C(c1ccc(Sc3nc4ccccc4[nH]3)o1)c1c[nH]nc1N2 (stereo not shown) [Example 38, 4-[5-(1H-Benzimidazol-2-ylsulfanyl)-furan-2-yl]-7-(2-fluoro-phenyl)-2,4,6,7,8,9-hexahydro-pyrazolo[3,4-b]quinolin-5-one; compound with trifluoro-acetic acid] | 7 | 18 |
| COc1ccccc1C1CC(=O)C2=C(C1)Nc1n[nH]cc1C2c1ccc(Sc2nc3ccccc3[nH]2)o1 (stereo not shown) [Example 39, 4-[5-(1H-Benzimidazol-2-ylsulfanyl)-furan-2-yl]-7-(2-methoxy-phenyl)-2,4,6,7,8,9-hexahydro-pyrazolo[3,4-b]quinolin-5-one; compound with trifluoro-acetic acid] | 38 | 134 |
| O=C1CCCCC2=C1C(c1ccc(Sc3nc4ccccc4[nH]3)o1)c1c[nH]nc1N2 (stereo not shown) [Example 41, 4-[5-(1H-Benzoimidazol-2-ylsulfanyl)-furan-2-yl]-4,6,7,8,9,10-hexahydro-2H-1,2,10-triaza-cyclohepta[f]inden-5-one; compound with trifluoro-acetic acid] | 10 | 29 |
| O=C1OCC2=C1C(c1ccc(Sc3nc4ccccc4[nH]3)o1)c1c[nH]nc1N2 (stereo not shown) [Example 42, 4-[5-(1H-Benzoimidazol-2-ylsulfanyl)-furan-2-yl]-2,4,7,8-tetrahydro-6-oxa-1,2,8-triaza-s-indacen-5-one; compound with trifluoro-acetic acid] | 17 | 508 |
| O=C1CN(CC(O)CN2CCCCC2)CC2=C1C(c1ccc(Sc3nc4ccccc4[nH]3)o1)c1c[nH]nc1N2 (stereo not shown) [Example 45, 4-[5-(1H-Benzimidazol-2-ylsulfanyl)-furan-2-yl]-7-(2-hydroxy-3-piperidin-1-yl-propyl)-2,4,6,7,8,9-hexahydro-pyrazolo[3,4-b]-1,7-naphthyridin-5-one; compound with trifluoro-acetic acid] | 43 | 887 |
| O=C1CNCC2=C1C(c1ccc(Sc3nc4ccccc4[nH]3)o1)c1c[nH]nc1N2CC(O)CN1CCOCC1 (stereo not shown) [Example 52, 4-[5-(1H-Benzimidazol-2-ylsulfanyl)-furan-2-yl]-9-(2-hydroxy-3-morpholin-4-yl-propyl)-2,4,6,7,8,9-hexahydro-pyrazolo[3,4-b]-1,7-naphthyridin-5-one; compound with trifluoro-acetic acid] | 145 | 1940 |
| CN1C2=C(C(=O)CCC2)C(c2ccc(Sc3nc4ccccc4[nH]3)o2)c2c[nH]nc21 (stereo not shown) [Example 59, 4-[5-(1H-Benzimidazol-2-ylsulfanyl)-furan-2-yl]-9-methyl-2,4,6,7,8,9-hexahydro-pyrazolo[3,4-b]quinolin-5-one; compound with trifluoro-acetic acid] | 136 | 2220 |
| Cc1ccc2[nH]c(Sc3ccc(C4C5=C(CCCC5=O)Nc5n[nH]cc54)o3)nc2c1 (stereo not shown) [Example 70, 4-[5-(5-Methyl-1H-benzimidazol-2-ylsulfanyl)-furan-2-yl]-2,4,6,7,8,9-hexahydro-pyrazolo[3,4-b]quinolin-5-one; compound with trifluoro-acetic acid compound with trifluoro-acetic acid] | 8 | 31 |
| Cc1ccc2[nH]c(Sc3ccc(C4C5=C(CNCC5=O)Nc5n[nH]cc54)o3)nc2c1 (stereo not shown) [Example 71, 4-[5-(5-Methyl-1H-benzimidazol-2-ylsulfanyl)-furan-2-yl]-2,4,6,7,8,9-hexahydro-pyrazolo[3,4-b]-1,7-naphthyridin-5-one; compound with trifluoro-acetic acid] | 15 | 187 |
| Cc1ccc2[nH]c(Sc3ccc(C4C5=C(CC(C)(C)CC5=O)Nc5n[nH]cc54)o3)nc2c1 (stereo not shown) [Example 72, 7,7-Dimethyl-4-[5-(5-methyl-1H-benzimidazol-2-ylsulfanyl)-furan-2-yl]-2,4,6,7,8,9-hexahydro-pyrazolo[3,4-b]quinolin-5-one] | 6 | 20 |

More lines, now with the values ahead:

| IC50 (Aurora1 (Aurora-B)) [nM] | IC50 (Aurora2 (Aurora-A)) [nM] | SMILES |
| --- | --- | --- |
| 55 | 35 | O=C1CCCC2=C1C(c1ccc(Sc3nc4cc(Cl)ccc4s3)o1)c1c[nH]nc1N2 (stereo not shown) [Example 73, 4-[5-(5-Chloro-benzothiazol-2-ylsulfanyl)-furan-2-yl]-2,4,6,7,8,9-hexahydro-pyrazolo[3,4-b]quinolin-5-one; compound with trifluoro-acetic acid] |
| 521 | 302 | O=C1CNCC2=C1C(c1ccc(Sc3nc4cc(Cl)ccc4s3)o1)c1c[nH]nc1N2 (stereo not shown) [Example 74, 4-[5-(5-Chloro-benzothiazol-2-ylsulfanyl)-furan-2-yl]-2,4,6,7,8,9-hexahydro-pyrazolo[3,4-b]-1,7-naphthyridin-5-one; compound with trifluoro-acetic acid] |
| 183 | 73 | CC1(C)CC(=O)C2=C(C1)Nc1n[nH]cc1C2c1ccc(Sc2nc3cc(Cl)ccc3s2)o1 (stereo not shown) [Example 75, 4-[5-(5-Chloro-benzothiazol-2-ylsulfanyl)-furan-2-yl]-7,7-dimethyl-2,4,6,7,8,9-hexahydro-pyrazolo[3,4-b]quinolin-5-one] |
| 9 | 46 | O=C1CCCC2=C1C(c1ccc(Sc3nc4cc(OC(F)F)ccc4[nH]3)o1)c1c[nH]nc1N2 (stereo not shown) [Example 76, 4-[5-(5-Difluoromethoxy-1H-benzimidazol-2-ylsulfanyl)-furan-2-yl]-2,4,6,7,8,9-hexahydro-pyrazolo[3,4-b]quinolin-5-one; compound with trifluoro-acetic acid] |
| 473 | 2480 | COc1ccc2nc(Oc3ccc(C4C5=C(CCCC5=O)Nc5n[nH]cc54)o3)[nH]c2c1 (stereo not shown) [Example 77, 4-[5-(6-Methoxy-1H-benzimidazol-2-yloxy)-furan-2-yl]-2,4,6,7,8,9-hexahydro-pyrazolo[3,4-b]quinolin-5-one; compound with trifluoro-acetic acid] |
| 121 | 331 | Cc1c[nH]c(Sc2ccc(C3C4=C(CCCC4=O)Nc4n[nH]cc43)o2)n1 (stereo not shown) [Example 78, 4-[5-(4-methyl-1H-imidazol-2-ylsulfanyl)-furan-2-yl]-2,4,6,7,8,9-hexahydro-pyrazolo[3,4-b]quinolin-5-one; compound with trifluoro-acetic acid] |
| 15 | 70 | COc1ccc2[nH]c(Sc3ccc(C4C5=C(CCCC5=O)Nc5n[nH]cc54)o3)nc2c1 (stereo not shown) [Example 79, 4-[5-(5-Methoxy-1H-benzimidazol-2-ylsulfanyl)-furan-2-yl]-2,4,6,7,8,9-hexahydro-pyrazolo[3,4-b]quinolin-5-one; compound with trifluoro-acetic acid] |
